Measurements published in patent USRE48077E1, “Methods of treating ototoxicity” (Anida Pharma Inc., priority 2013, dated 2020).
Where two headings read alike, the source gives them in different places.

Columns and labels:
Assay type in all cases: cell-based, mouse
[1] = tested on: reactive oxygen species (ROS) in UB/OC-1 cells; test: ROS generation by CellROX green staining, confocal imaging
Procedure: The cultures were kept at 33° C. in an incubator with 10% CO2. UB/OC1 cells were cultured on glass coverslips in 12-well culture plates. […] The cells were then washed once with phosphate buffered saline (PBS), and fixed in 4% paraformaldehyde for 15 minutes. The coverslips were then mounted with DAPI containing Vectashield (Vector Labs, Burlingame, Calif.).

TRPV-1 = test: Immunofluorescence staining of stress and inflammatory markers: TRPV-1
Procedure: (§1) The cultures were kept at 33° C. in an incubator with 10% CO2. Detection of stress and inflammatory markers in UB/OC-1 cells was performed by immunofluorescence staining. UB/OC-1 cells were first plated in a 12 well plate. […] After the treatment, the cells were fixed with 4% paraformaldehyde (Sigma, St. Louis, Mo.), followed by washing once with phosphate buffered saline (PBS). Coverslips were then incubated with solution A—5% donkey serum (Jackson Immuno Laboratories, West Grove, Pa.) and 0.5% Triton-X (Sigma, St. Louis, Mo.) in PBS for 30 min at room temperature. Double immunostaining for different markers NOX3, iNOS, TRPV1 or TNF-α (1:300 dilution) in solution A was performed overnight at 4° C. Secondary antibody mix was then added and incubated for 1 h at 37° C. After 3 washes with PBS and two washes with fresh distilled water the coverslips were mounted on glass slides using Vectashield mounting medium containing DAPI (Vector Laboratories, Inc. Burlingame, Calif.) for nuclear staining, before imaging under an LEICA confocal microscope (Buffalo Grove, Ill.).

UB/OC-1 cells [2] = test: Cell viability by MTS assay (CellTiter 96 AQueous One Solution Cell Proliferation Assay), with and without cisplatin-induced damage; conditions: 24 hours
Procedure: In the examples described herein, UB/OC-1 cells, or immortalized organ of Corti cells derived from the mouse, were utilized to examine the activity of NPD1 in the context of ototoxic damage. […] The cultures were kept at 33° C. in an incubator with 10% CO2. […] In brief, 3,500 cells per well were seeded into a 96-well plate. […] NPD1 treatment of 1-100 nM concentrations was tested in 3 independent experiments. A cell proliferation assay was performed by using Cell-Titer 96® AQueous One Solution Cell Proliferation Assay Kit (Promega, Madison, Wis.), according to the manufacturer's instructions. After 24 hours, 20 μl of CellTiter 96 AQueous One Solution reagent was added to each well in 100 μl of total volume of media. Cells were incubated for 3 to 4 hours, and absorbance was recorded at 490 nm using an ELISA plate reader. The absorbance is directly proportional to the number of living cells and is expressed as a percent relative to vehicle-treated cells.

NOX3 = test: Immunofluorescence staining of stress and inflammatory markers: NOX3
Procedure: as §1

TNFα = test: Immunofluorescence staining of stress and inflammatory markers: TNFα
Procedure: as §1

iNOS = test: Immunofluorescence staining of stress and inflammatory markers: iNOS
Procedure: as §1

[3] = Cell survival by FITC-AnnexinV/propidium iodide apoptosis detection, flow cytometry; conditions: mouse, no cisplatin; for viability at 1 nM: NPD1 1 nM alone; for viability at 10 nM: NPD1 10 nM alone; for viability at 100 nM: NPD1 100 nM alone
Procedure: (§2) The cultures were kept at 33° C. in an incubator with 10% CO2. Cell survival after NPD1 treatment was also analyzed in UB/OC-1 cells in the presence or absence of damage. Specifically, cell death via apoptosis was determined by using FITC-AnnexinV Apoptosis detection kit (BD Pharmingen, San Diego, Calif., USA) and quantified by flow cytometry. In brief, 3,500 UB/OC-1 cells per well were seeded into a 96-well plate. […] At the end of the treatment time, UB/OC-1 cells were washed once with phosphate buffered saline (PBS) and harvested in a 0.5% trypsin/EDTA solution at 37° C., centrifuged at 220×g for 5 min and then immediately resuspended in the physiological buffer provided in the kit. […] The results were quantified using the CellQuest software (BD Biosciences, San Jose, Calif.). Data are expressed as percent viable (non-apoptotic cells) with the number of cells seeded into each well used as 100%. Three independent experiments were performed.

UB/OC-1 cells [4] = test: as above; conditions: for viability at 0.001 µM / viability at 0.01 µM / viability at 0.1 µM: Mus musculus
Procedure: as §2

[5] = NPD1 (1, 10, 100 nM; particularly at 10 nM) 30 minutes, then cisplatin 2.5 μM 24 hours
[6] = NPD1 at 1 nM, 10 nM and 100 nM 30 minutes, then cisplatin 2.5 μM 24 hours
[7] = average of three experiments, read-out: Cell Viability Avg.
[8] = read-out: Set II Cell Viability
[9] = read-out: Set III Cell Viability
[10] = cisplatin only 2.5 μM, 24 hours

With `CC/C=C\C[C@H](O)\C=C/C=C/C=C/[C@H](O)C/C=C\C/C=C\CCC(=O)[O-].[Na+]` [NPD1, Sodium (4Z,7Z,10R,11E,13E,15Z,17S,19Z)-10,17-dihydroxydocosa-4,7,11,13,15,19-hexaenoate] the ROS staining ([1]; NPD1 1 nM and 10 nM pre-treatment 30 minutes, then cisplatin 2.5 μM 30 minutes) was “decreased ROS staining”, the ROS staining ([1]; NPD1 alone, no cisplatin) was “very little or no ROS staining” and the “TRPV-1 expression (staining)” value (TRPV-1; [5]) was “decrease”. For the same compound, the cell viability (UB/OC-1 cells [2]; NPD1 1 nM-100 nM with cisplatin 20 μM, percent relative to vehicle-treated cells) was “over 95%”, the cell viability (UB/OC-1 cells [2]; NPD1 at all tested concentrations (1 pM-100 nM) with cisplatin 20 μM, percent relative to vehicle-treated cells) was “over 80%” and the “NOX3 expression (staining)” value (NOX3; [6]) was “significant decrease”. For the same compound, the “TNFα expression (staining)” value (TNFα; [5]) was “decrease”, the “iNOS expression (staining)” value (iNOS; [6]) was “significant decrease” and the viability at 1 nM [3, 7] was 96.8%. For the same compound, the viability at 1 nM ([3]; read-out: Set I Cell Viability) was 96%, the viability at 1 nM [3, 8] was 96% and the viability at 1 nM [3, 9] was 98.5%. For the same compound, the viability at 10 nM [3, 7] was 96.9%, the viability at 10 nM ([3]; read-out: Set I Cell Viability) was 96% and the viability at 10 nM [3, 8] was 97%. The viability at 10 nM [3, 9] was 97.7%, the viability at 100 nM [3, 7] was 96.2% and the viability at 100 nM ([3]; read-out: Set I Cell Viability) was 91%. The viability at 100 nM [3, 8] was 98%, the viability at 100 nM [3, 9] was 99.5% and the viability at 0.001 µM (UB/OC-1 cells [4]; read-out: Cell Viability Avg., NPD1 1 nM, 30 minutes later cisplatin 20 μM for 24 h, average of three experiments) was 87.6%. The viability at 0.01 µM (UB/OC-1 cells [4]; read-out: Cell Viability Avg., NPD1 10 nM, 30 minutes later cisplatin 20 μM for 24 h, average of three experiments) was 88.8%, the viability at 0.1 µM (UB/OC-1 cells [4]; read-out: Cell Viability Avg., NPD1 100 nM, 30 minutes later cisplatin 20 μM for 24 h, average of three experiments) was 89.2% and the viability at 0.001 µM (UB/OC-1 cells [4]; read-out: Set I Cell Viability, NPD1 1 nM, 30 minutes later cisplatin 20 μM for 24 h) was 85%. It also gave a viability at 0.01 µM (UB/OC-1 cells [4]; read-out: Set I Cell Viability, NPD1 10 nM, 30 minutes later cisplatin 20 μM for 24 h) of 84%, a viability at 0.1 µM (UB/OC-1 cells [4]; read-out: Set I Cell Viability, NPD1 100 nM, 30 minutes later cisplatin 20 μM for 24 h) of 90% and a viability at 0.001 µM (UB/OC-1 cells [4]; read-out: Set II Cell Viability, NPD1 1 nM, 30 minutes later cisplatin 20 μM for 24 h) of 83%. It also gave a viability at 0.01 µM (UB/OC-1 cells [4]; read-out: Set II Cell Viability, NPD1 10 nM, 30 minutes later cisplatin 20 μM for 24 h) of 86%, a viability at 0.1 µM (UB/OC-1 cells [4]; read-out: Set II Cell Viability, NPD1 100 nM, 30 minutes later cisplatin 20 μM for 24 h) of 80% and a viability at 0.001 µM (UB/OC-1 cells [4]; read-out: Set III Cell Viability, NPD1 1 nM, 30 minutes later cisplatin 20 μM for 24 h) of 94.9%. The viability at 0.01 µM (UB/OC-1 cells [4]; read-out: Set III Cell Viability, NPD1 10 nM, 30 minutes later cisplatin 20 μM for 24 h) was 96.5%, the viability at 0.1 µM (UB/OC-1 cells [4]; read-out: Set III Cell Viability, NPD1 100 nM, 30 minutes later cisplatin 20 μM for 24 h) was 97.6% and the cell survival (UB/OC-1 cells [4]; NPD1 treatment in cisplatin-induced damaged cells) was “over 96%”.

For `N.N.[Cl][Pt][Cl]` [cisplatin, reference compound], the ROS staining ([1]; cisplatin 2.5 μM alone, 30 minutes) was “ROS staining in the cytoplasm of the cell”, the TRPV-1 staining (TRPV-1; [10]) was “increased staining” and the cell viability (UB/OC-1 cells [2]; cisplatin 20 μM alone) was “reduced cell viability”. The NOX3 staining (NOX3; [10]) was “increased staining”, the TNFα staining (TNFα; [10]) was “increased staining” and the iNOS staining (iNOS; [10]) was “increased staining”.
